Patent US4910193A, “Treatment of gastrointestinal disorders” (Sandoz Ltd., priority 1987, dated 1990)
Counter-ions that a name gives are not always drawn. Like-named read-outs stand apart in the source and are kept apart here.

Columns and labels:
[1] = Properties of salt forms (solubility, stability); assay type: physicochemical; conditions: in words
dopamine binding sites [2] = assay: Binding to dopamine sites with tritiated haloperidol
Method: Several drugs e.g. metoclopramide are known for the treatment of gastrointestinal disorders (gut motility disorders). Action has been ascribed to opiates (e.g. loperamide), dopaminergic compounds (e.g. metoclopramide) although for most drugs the mode of the action is not well understood (see J. R. Malegeleda Scand. J. Gastroenterology, 19, Suppl. 96, 1984, pp. 115-121).
The compounds of the invention have insignificant action on dopamine binding sites, e.g. having an IC50 of […] or more using tritriated haloperidol.

[3] = test system: high affinity 5-HT receptor; assay: Isolated longitudinal muscle of guinea pig ileum, 5-HT contraction, high affinity receptor
Source text: The isolated longitudinal muscle of the guinea pig ileum with its adhering myenteric plexus is a well established model which permits investigation of the mechanism of action of various neurotransmitters.
Male guinea pigs (200-400 g) were killed by a blow on the head and exsanguineated. A length of small intestine was removed about 2 cm from the ileo-caecal valve. The mesentery was carefully removed and the ileum was stretched over a glass rod. By stroking tangentially away from the mesenteric attachement with a wad of cotton wool, the longitudinal muscle layer was separated and stripped from the unterlying circular muscle. Longitudinal muscle strips, 3-4 cm length, were mounted in a 10 ml organ bath containing Tyrode solution at 37° C. and bubbled with 5% carbon dioxide in oxygen. The Tyrode solution was of the following composition (mmol/l): NaCl, 137.0; CaCl2, 1.8; KCl, 2.7; MgCl2, 1.05; NaHCO3, 11.9; NaH2 PO4, 0.4; glucose, 5.6. The strips were placed under a resting tension of 500 mg. Contractions were recorded with an isotonic pendulum lever. […]
Each concentration was left in contact with the tissue for 1 min. […] Inhibition constants were expressed in the form of pA2 values which were graphically determined according to conventional methods (Arunlakshana and Schild, 1959. McKay 1978). […]

[4] = test system: gastrointestinal motility induced by 5-hydroxytryptophan (5-HTP); assay: Test C: inhibition of increase in gastrointestinal motility induced by 5-HTP; assay type: in vivo, mouse (male NMRI); conditions: Mus musculus, ip; inhibition of 5-HTP induced motility
Method: In a further test the inhibition of the compounds of the invention in inhibiting the increase in gastrointestinal motility induced by 5-hydroxytryptophan (5-HTP) was observed.
Male NMRI mice (18-32 g in weight) are deprived of food 20 hours before the test. Water is not limited. The animals are separated by a barrier from their straw and access to feces. At the beginning of the test the animals are separated in individual single cages and water is removed.
All animals were treated with the test compound or saline. I.p. administration was used. Injection volume was 0.1 ml/10 g. 30 minutes after pre-treatment 5-HTP or saline was administered. Injection volume 0.1 ml/10 g. Dose 3 mg/kg. At the same time charcoal was administered perorally (10% suspension in water; 0.1 ml/10 g). 45 minutes after the start of the experiment the animals were killed. The intestines from the stomach to the rectum were examined. For each animal the transit distance of the front of the charcoal mean along the intestine was measured. The distance was ascertained as a percentage of the whole intestinal length. Groups of at least 3 animals were used.

[5] = target: T1, low affinity 5-HT receptor (Cavia porcellus, UniProt O70212); assay: Isolated longitudinal muscle of guinea pig ileum, 5-HT contraction, low affinity receptor; conditions: read-out: pA2 (converted)
T1 construct: The isolated longitudinal muscle of the guinea pig ileum with its adhering myenteric plexus; from tissue; host or cells: longitudinal muscle strips of ileum with myenteric plexus, male guinea pigs
T1 sequence (O70212 20-490): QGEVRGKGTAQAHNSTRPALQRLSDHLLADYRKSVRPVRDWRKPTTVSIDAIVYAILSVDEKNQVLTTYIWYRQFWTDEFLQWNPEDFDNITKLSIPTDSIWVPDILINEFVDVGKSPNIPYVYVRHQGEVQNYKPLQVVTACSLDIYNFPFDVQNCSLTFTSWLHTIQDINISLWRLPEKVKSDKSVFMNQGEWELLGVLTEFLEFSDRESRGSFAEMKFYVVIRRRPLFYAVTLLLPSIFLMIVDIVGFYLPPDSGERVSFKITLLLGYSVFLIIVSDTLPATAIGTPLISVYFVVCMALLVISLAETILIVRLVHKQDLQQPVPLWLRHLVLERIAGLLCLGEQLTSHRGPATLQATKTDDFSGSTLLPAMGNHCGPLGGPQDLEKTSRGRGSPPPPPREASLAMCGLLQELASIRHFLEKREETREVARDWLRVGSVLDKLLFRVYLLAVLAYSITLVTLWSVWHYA
Method: Male guinea pigs (200-400 g) were killed by a blow on the head and exsanguineated. A length of small intestine was removed about 2 cm from the ileo-caecal valve. The mesentery was carefully removed and the ileum was stretched over a glass rod. By stroking tangentially away from the mesenteric attachement with a wad of cotton wool, the longitudinal muscle layer was separated and stripped from the unterlying circular muscle. Longitudinal muscle strips, 3-4 cm length, were mounted in a 10 ml organ bath containing Tyrode solution at 37° C. and bubbled with 5% carbon dioxide in oxygen. […] The strips were placed under a resting tension of 500 mg. Contractions were recorded with an isotonic pendulum lever. After equilibration for 30 min a set concentration of carbachol was applied in 10 min intervals until a consistent reaction was achieved.
Production of the concentration/reaction curve
Non-cumulative concentration-response curves for 5-HT were established by adding increasing concentrations of the agonist to the organ bath at intervals of at least 15 min. […] Each concentration was left in contact with the tissue for 1 min. […] The contractions expressed as percentage of the maximal response to 5-HT obtained from several preparations were plotted as mean values in order to obtain log-concentration-response curves.

dopamine binding sites [6] = conditions: tritiated haloperidol; read-out: IC50 dopamine sites (literature); cited from earlier work
dopamine = conditions: in words; comparison drug; cited from earlier work
[7] = test system: 5-HT3 receptors in the guinea pig ileum; conditions: counteracting 5-HT induced spasms; cited from earlier work
[8] = test system: muscle strips from different parts of the guinea pig stomach; assay: Test A: field stimulation-induced contractions in guinea pig stomach muscle strips; set-up: species or system guinea pig (male Dunkin-Hartley)
Source text: The compounds of the invention facilitate field stimulation-induced contractions in muscle strips from different parts of the guinea pig stomach and are therefore indicated to increase decreased peristalic movements in the stomach and to enhance gastric emptying in vivo. The test is effected as follows:
Male Dunkin-Hartley guinea pigs, 340-450 g, which had been starved overnight, were killed by cervical transsection and the stomach removed and placed in Krebs-Henseleit solution (NaCl 118.0, KCl 4.75, KH2 PO4 1.2, MgSO4 1.2, CaCl2 2.5, glucose 10 mM). Segments were taken from the body (approximately 20 mm long, 3-4 mm wide) with dissection in a plane suitable to investigate tension changes in the circular muscle layer. Tissues were placed in 30 ml organ baths containing oxygenated (95% O2, 5% CO2) Krebs-Henseleit solution at 37° C. One gram tension was applied to the tissues which were allowed to equilibrate for 45-60 min. before electrical stimulation. […] Responses were measured as changes in gram tension, but to allow easier comparison between treatments, data was converted to show changes as percentage values. The significance of differences between control responses and those obtained in the presence of interacting drugs was assessed using the Mann-Whitney U test.

[9] = test system: chloera toxin-induced secretory diarrhea; set-up: species or system mouse (male NMRI); conditions: mouse, in vivo
[10] = test system: conscious guinea pigs having stomachs made atonic; assay: Test B: gastric emptying in conscious guinea pigs (X-ray of spheroids); assay type: in vivo, guinea pig; conditions: versus metoclopramide
Method: The compounds of the invention also induce gastric emptying as indicated in standard in vivo tests, e.g. in conscious guinea pigs having stomachs made atonic (i.e. having decreased peristaltic movements) by fasting and wherein the passage of glass spheroids was observed by X-ray techniques. The experiments is effected as follows:
Food was withdrawn for 14 hours before the measurement of gastric emptying. The experiment was conducted under low illumination with minimal noise and disturbance, and was carried out only by those experimentors who had daily contact with the guinea pigs and who carried out the initial training to accustom the guinea pigs to handling. Therefore, animals were subject to minimal stress. […] Gastric emptying was measured as the number of spheroids leaving the stomach.
Six guinea pigs were used at each dose level of drug and responses compared to those of guinea pigs receiving the appropriate vehicle. The significance of differences between drug and control responses was assessed using the Mann Whitney U test.

rabbit vagus = conditions: in words; cited from earlier work
rabbit heart = conditions: in words; cited from earlier work
5-HT reflex = conditions: in words; comparison drug; cited from earlier work

Which “solubility and stability properties of salt form” value [1] does the source give for `CN1[C@@H]2CCC[C@H]1C[C@@H](OC(=O)c1csc3ccccc13)C2` [hydrochloride of compound F] here?
Its value is “especially advantageous properties, e.g. from the solubility and stability point of view”.

With `CN1[C@@H]2CCC[C@H]1C[C@@H](OC(=O)c1cn(C)c3ccc(F)cc13)C2` [hydrogen maleate of compound G] as the molecule, how does the “solubility and stability properties of salt form” value [1] read?
Its value is “especially advantageous properties, e.g. from the solubility and stability point of view”.

Which IC50 (dopamine binding sites [2]) does the source give for `CNc1cc(OC)c(C(=O)NC2CN3CCC2CC3)cc1Cl` (centres unmarked) [Example 71] here?
Its IC50 is > 10000 nM.

What does the source list for `CN1[C@@H]2CCC[C@H]1C[C@@H](OC(=O)c1csc3ccccc13)C2` [Compound F, Benzo[b]thiophen-3-yl carboxylic acid endo-9-methyl-aza-bicyclo[3,3,1]non-3-yl ester]?
pD'2 [3]: 5.9; ED50 [4]: 0.025 mg/kg; Kb [5]: 0.398 nM

For `CN1[C@@H]2CCC[C@H]1C[C@@H](OC(=O)c1cn(C)c3ccc(F)cc13)C2` [Compound G, 5-fluoro-1-methyl-indol-3-yl carboxylic acid endo-9-methyl-9-aza-bicyclo[3,3,1]non-3-yl ester], which ED50 [4] is on record?
The ED50 was 0.002 mg/kg.

Which IC50 (dopamine binding sites [6]) does the source give for `CCN(CC)CCNC(=O)c1cc(Cl)c(N)cc1OC` [metoclopramide] here?
The IC50 was ~170 nM.

And the dopamine action (dopamine)?
Its dopamine action is “dopamine agonist action”.

Which “pD'2” value [3] does the source give for `CN1[C@@H]2CC[C@H]1C[C@@H](OC(=O)c1c[nH]c3ccccc13)C2` [Compound E, Indol-3-yl carboxylic acid endo-8-methyl-8-aza-bicyclo-[3,2,1]oct-3-yl ester] here?
The value was 5.7.

And the “action at 5-HT3 receptors in guinea pig ileum” value [7]?
Its value is “competitive antagonist of the 5-HT3 receptors in the guinea pig ileum”.

What about the ED50 [4] of the same molecule?
The ED50 was 0.07 mg/kg.

And the EC (maximal response) ([8]; Cavia porcellus, field stimulation of stomach strips, read-out: concentration producing maximal response)?
The EC (maximal response) was 0.01 µM.

What about the “times more active than metoclopramide (contraction)” value ([8]; versus metoclopramide) of the same molecule?
The value was 100 times.

What about the “effect of increased dose on stomach contents” value [9] of the same molecule?
Its value is “did not lead to a reduction in the stomach contents”.

What about the “times more active than metoclopramide (gastric emptying)” value [10] of the same molecule?
Its value is “about 50 times”.

What about the Kb [5] of the same molecule?
The Kb was 12.6 nM.

What about the “action against 5-HT on rabbit vagus” value (rabbit vagus) of the same molecule?
Its value is “antagonistic action against 5-HT”.

What about the “action against 5-HT on rabbit heart” value (rabbit heart) of the same molecule?
The value was “antagonistic action against 5-HT”.

With `CN1[C@@H]2CC[C@H]1C[C@@H](OC(=O)C(CO)c1ccccc1)C2` (some centres unmarked) [atropine] as the molecule, how does the “effect on the whole reflex” value (5-HT reflex) read?
The value was “paralyse the whole reflex”.
